According to PMC7486940, “Pre-symptomatic Caspase-1 inhibitor delays cognitive decline in a mouse model of Alzheimer disease and aging” (Nature Communications, 2020):
Values joined by “and” are separate entries in the source; they are usually repeats but may differ in a detail not shown here. Equal values may be shown once. Read-outs that look alike come from different tables or passages of the source. Marks after values point to notes of the source that are not given here.

How the values were obtained:
[1] = cited from earlier work
Casp1 = tested on: Casp1; set-up: method as in PMID 30254377; conditions: in vitro Casp1; cited from earlier work
[2] = VX-765 and VRT-043198 pharmacokinetics (LC-MS/MS) in plasma, whole brain and CSF after a single IP dose of VX-765
Procedure: Plasma, whole brain and CSF concentrations of VX-765 and its active metabolite, VRT-043198, were determined by LC-MS/MS at Paraza Pharma (Montreal, QC, Canada). Fourteen C57BL/6J female mice received a single IP dose of 50 mg · kg^−1 VX-765 and 2 mice per time point were euthanized at 0.25, 0.5, 1, 3, 6, 8 and 24 h post-injection. Mice were isoflurane anesthetized to collect CSF and perform a cardiac puncture followed by whole body perfusion with PBS. Plasma samples were extracted 1:1 in spiking solution and internal standard solution containing 0.1 μM glyburide in acetonitrile. Brain and CSF samples were extracted 1:1 in spiking solution and internal standard solution containing 0.2 μM labetalol in 50:50 methanol:acetonitrile. Samples were centrifuged at 4000 × g for 10 min at 4 °C, the plasma supernatant diluted 1:1 and the brain and CSF supernatant diluted 1:2 in H2O, and 5 μl was injected into a Quantis LC-MS/MS system for analysis.

[3] = set-up: method as in PMID 30254377; conditions: 50 mg/kg dose of VX-765, carotid infusion, J20 mice; cited from earlier work
APP23 mice = tested on: APP23 mice; set-up: method as in PMID 16095884; conditions: 2-month pre-symptomatic treatment, 3-week WO; cited from earlier work
[4] = tested on: APP/PS1 mouse model of AD; set-up: method as in Woodling et al., Brain 2016; conditions: three month treatment given one month before the appearance of deficits, ref Woodling et al., Brain 2016; cited from earlier work
APP/PS1 = tested on: APP/PS1; set-up: method as in PMID 29191754; conditions: 1-month pre-treatment, 3-week WO; cited from earlier work
[5] = CSF, 0.50 h after single IP 50 mg/kg VX-765
[6] = CSF, 1 h after single IP 50 mg/kg VX-765
[7] = CSF, 3 h after single IP 50 mg/kg VX-765, some blood contamination during CSF collection
[8] = CSF, 8 h after single IP 50 mg/kg VX-765, some blood contamination during CSF collection
[9] = plasma, 0.25 h after single IP 50 mg/kg VX-765
[10] = plasma, 0.50 h after single IP 50 mg/kg VX-765
[11] = plasma, 1 h after single IP 50 mg/kg VX-765
[12] = plasma, 3 h after single IP 50 mg/kg VX-765
[13] = plasma, 6 h after single IP 50 mg/kg VX-765
[14] = plasma, 8 h after single IP 50 mg/kg VX-765
[15] = plasma, single IP 50 mg/kg VX-765
[16] = whole brain, 0.25 h after single IP 50 mg/kg VX-765
[17] = whole brain, 0.50 h after single IP 50 mg/kg VX-765
[18] = whole brain, 1 h after single IP 50 mg/kg VX-765, NQ = not quantifiable, LLOQ 0.025 μM VX-765, 0.049 μM VRT-043198
[19] = whole brain, single IP 50 mg/kg VX-765

In the case of CC(C)(C)[C@H](NC(=O)c1ccc(N)c(Cl)c1)C(=O)N1CCC[C@H]1C(=O)N[C@H](C=O)CC(=O)O [VRT-043198], the “in vitro half-life (t1/2)” value [1] is listed as ~180 min, the IC50 (Casp1) is listed as 9.91 nM and the “CSF concentration, Mouse 2” value ([2]; CSF, 0.25 h after single IP 50 mg/kg VX-765) is listed as 3.11 µM. For the same molecule, the “CSF concentration, Mean” value ([2]; CSF, 0.25 h after single IP 50 mg/kg VX-765, n = 2) was 42.9 µM, the “CSF concentration, Mouse 1” value ([2]; CSF, 0.25 h after single IP 50 mg/kg VX-765, some blood contamination during CSF collection) was 82.6* μM and the “CSF concentration, Mouse 1” value [2, 5] was 0.44 µM. For the same molecule, the “CSF concentration, Mouse 2” value [2, 5] was 7.00 µM, the “CSF concentration, Mean” value ([2]; CSF, 0.50 h after single IP 50 mg/kg VX-765, n = 2) was 3.72 µM and the “CSF concentration, Mouse 1” value [2, 6] was 0.43 µM. The “CSF concentration, Mouse 2” value [2, 6] was 0.58 µM, the “CSF concentration, Mean” value ([2]; CSF, 1 h after single IP 50 mg/kg VX-765, n = 2) was 0.50 µM and the “CSF concentration, Mean” value ([2]; CSF, 3 h after single IP 50 mg/kg VX-765, n = 2) was 0.28 µM. For the same molecule, the “CSF concentration, Mouse 1” value [2, 7] was 0.42* μM, the “CSF concentration, Mouse 2” value [2, 7] was 0.15* μM and the “CSF concentration, Mean” value ([2]; CSF, 6 h after single IP 50 mg/kg VX-765) was 0.21 µM. The “CSF concentration, Mouse 2” value ([2]; CSF, 6 h after single IP 50 mg/kg VX-765, some blood contamination during CSF collection) was 0.21* μM, the “CSF concentration, Mean” value ([2]; CSF, 8 h after single IP 50 mg/kg VX-765, n = 2) was 0.36 µM and the “CSF concentration, Mouse 1” value [2, 8] was 0.13* μM. For the same molecule, the “CSF concentration, Mouse 2” value [2, 8] was 0.60* μM, the “MRTinf in CSF, Mean” value ([2]; CSF, single IP 50 mg/kg VX-765) was 48.6 min and the “MRTinf in CSF, Mouse 1” value ([2]; CSF, single IP 50 mg/kg VX-765) was 48.6 min. For the same molecule, the “Tmax in CSF, Mean” value ([2]; CSF, single IP 50 mg/kg VX-765) was 22.8 min, the “Tmax in CSF, Mouse 1” value ([2]; CSF, single IP 50 mg/kg VX-765) was 15 min and the “Tmax in CSF, Mouse 2” value ([2]; CSF, single IP 50 mg/kg VX-765) was 30 min. The “CSF concentration relative to respective in vitro Casp1 IC50” value ([2]; CSF, within 0.25 h post-injection, single IP 50 mg/kg VX-765) was 4000 fold, the “brain concentration relative to respective in vitro Casp1 IC50” value ([2]; brain, within 0.25 h post-injection, single IP 50 mg/kg VX-765) was 170 fold and the “plasma concentration, Mouse 1” value [2, 9] was 201800 nM. For the same molecule, the “plasma concentration, Mouse 2” value [2, 9] was 180400 nM, the “plasma concentration, Mean” value ([2]; plasma, 0.25 h after single IP 50 mg/kg VX-765, n = 2) was 191100 nM and the “plasma concentration, Mouse 1” value [2, 10] was 338100 nM. For the same molecule, the “plasma concentration, Mouse 2” value [2, 10] was 104100 nM, the “plasma concentration, Mean” value ([2]; plasma, 0.50 h after single IP 50 mg/kg VX-765, n = 2) was 221100 nM and the “plasma concentration, Mouse 1” value [2, 11] was 24400 nM. The “plasma concentration, Mouse 2” value [2, 11] was 51000 nM, the “plasma concentration, Mean” value ([2]; plasma, 1 h after single IP 50 mg/kg VX-765, n = 2) was 37700 nM and the “plasma concentration, Mouse 1” value [2, 12] was 1160 nM. The “plasma concentration, Mouse 2” value [2, 12] was 780 nM, the “plasma concentration, Mean” value ([2]; plasma, 3 h after single IP 50 mg/kg VX-765, n = 2) was 970 nM and the “plasma concentration, Mouse 1” value [2, 13] was 460 nM. For the same molecule, the “plasma concentration, Mouse 2” value [2, 13] was 300 nM, the “plasma concentration, Mean” value ([2]; plasma, 6 h after single IP 50 mg/kg VX-765, n = 2) was 380 nM and the “plasma concentration, Mouse 1” value [2, 14] was 350 nM. The “plasma concentration, Mouse 2” value [2, 14] was 240 nM, the “plasma concentration, Mean” value ([2]; plasma, 8 h after single IP 50 mg/kg VX-765, n = 2) was 300 nM and the “MRTinf in plasma, Mouse 1” value [2, 15] was 40.2 min. For the same molecule, the “MRTinf in plasma, Mouse 2” value [2, 15] was 46.8 min, the “Tmax in plasma, Mouse 1” value [2, 15] was 30 min and the “Tmax in plasma, Mouse 2” value [2, 15] was 15 min. For the same molecule, the “plasma concentration relative to respective in vitro Casp1 IC50” value ([2]; plasma, within 0.25 h post-injection, single IP 50 mg/kg VX-765) was 20,000 fold, the Cmax ([2]; read-out: Cmax in CSF, Mean, CSF, single IP 50 mg/kg VX-765) was 44800 nM and the Cmax ([2]; read-out: Cmax in CSF, Mouse 1, CSF, single IP 50 mg/kg VX-765) was 82600 nM. It also gave a Cmax ([2]; read-out: Cmax in CSF, Mouse 2, CSF, single IP 50 mg/kg VX-765) of 7000 nM, a Cmax ([2]; read-out: Cmax in brain, Mean, whole brain, single IP 50 mg/kg VX-765) of 1700 nM and a Cmax ([2]; read-out: Cmax in brain, Mouse 1, whole brain, single IP 50 mg/kg VX-765) of 2540 nM. For the same molecule, the Cmax ([2]; read-out: Cmax in brain, Mouse 2, whole brain, single IP 50 mg/kg VX-765) was 850 nM, the Cmax ([2]; read-out: Cmax in plasma, Mean, plasma, single IP 50 mg/kg VX-765) was 259000 nM and the Cmax ([2]; read-out: Cmax in plasma, Mouse 1, plasma, single IP 50 mg/kg VX-765) was 338000 nM. For the same molecule, the Cmax ([2]; read-out: Cmax in plasma, Mouse 2, plasma, single IP 50 mg/kg VX-765) was 180000 nM, the “brain concentration, Mouse 1” value [2, 16] was 2540 nM and the “brain concentration, Mouse 2” value [2, 16] was 850 nM. For the same molecule, the “brain concentration, Mean” value ([2]; whole brain, 0.25 h after single IP 50 mg/kg VX-765, n = 2) was 1700 nM, the “brain concentration, Mouse 1” value [2, 17] was 590 nM and the “brain concentration, Mouse 2” value [2, 17] was 650 nM. For the same molecule, the “brain concentration, Mean” value ([2]; whole brain, 0.50 h after single IP 50 mg/kg VX-765, n = 2) was 620 nM, the “brain concentration, Mean” value ([2]; whole brain, 1 h after single IP 50 mg/kg VX-765) was 240 nM and the “brain concentration, Mouse 1” value [2, 18] was 210 nM. For the same molecule, the “brain concentration, Mouse 2” value [2, 18] was 270 nM, the “brain concentration, Mean” value ([2]; whole brain, 3 h after single IP 50 mg/kg VX-765) was 80 nM and the “brain concentration, Mouse 1” value ([2]; whole brain, 3 h after single IP 50 mg/kg VX-765, NQ = not quantifiable, LLOQ 0.025 μM VX-765, 0.049 μM VRT-043198) was 80 nM. For the same molecule, the “Half-life (t1/2) in brain, Mouse 1” value [2, 19] was 59.4 min, the “MRTinf in brain, Mean” value [2, 19] was 52.2 min and the “MRTinf in brain, Mouse 1” value [2, 19] was 58.8 min. The “MRTinf in brain, Mouse 2” value [2, 19] was 45.6 min, the “Tmax in brain, Mean” value [2, 19] was 15 min and the “Tmax in brain, Mouse 1” value [2, 19] was 15 min. For the same molecule, the “Tmax in brain, Mouse 2” value [2, 19] was 15 min, the “Half-life (t1/2) in brain, Mean” value ([2]; whole brain, single IP 50 mg/kg VX-765, 50 mg/kg) was 60 min and 59.4 min and the “concentration in the J20 brain” value [3] was 2000 to 5000 nM.

For COc1ccc2c3c1O[C@H]1C[C@@H](O)C=C[C@@]31CCN(C)C2 [galantamine], the “Morris water maze acquisition and spatial memory” value (APP23 mice) is listed as “improved acquisition and spatial memory in the Morris water maze”.

In the case of CC(C)Cc1ccc(C(C)C(=O)O)cc1 (stereo not shown) [ibuprofen], the “cognitive impairment on NOR” value [4] is given as “prevention of cognitive impairment”.

In the case of CC12CC3CC(C)(C1)CC(N)(C3)C2 [memantine], the “Morris water maze acquisition and spatial memory” value (APP23 mice) is given as “improved acquisition and spatial memory in the Morris water maze”.

In the case of CN1CCN(CCOc2cc(OC3CCOCC3)c3c(Nc4c(Cl)ccc5c4OCO5)ncnc3c2)CC1 [saracatinib], the NOR performance (APP/PS1) is given as “continued improved performance in NOR”.
